This experiment deals with Serine/threonine-protein kinase ATR (Homo sapiens, UniProt Q13535). Briefly: ATR Enzyme Activity Inhibition Assay. The protocol:
Prepare various buffer systems required for the experiment:1. […] Prepare detection buffer: Dilute each of the anti-phospho-p53-Eu cryptate (Cisbio, Cat #61P08KA) and anti-GST-d2 (Cisbio, Cat #61GSTDLB) to 1 unit using HTRF detection buffer (Cisbio, Cat #62SDBRDF).Powdered compounds were dissolved in DMSO to from a stock solution at a concentration of 10 mM. The solution of compounds to be tested at a concentration of […] was performed a 3-fold dilution for 10 concentrations with DMSO. […] 5 μL of ATR was added to each well accordingly. Each well is incubated at 25° C. for 10 min, added with 5 μL of reaction substrate, incubated at 25° C. for 90 min and added with 10 μL of detection solution.
Chain of Serine/threonine-protein kinase ATR (Q13535 whole entry): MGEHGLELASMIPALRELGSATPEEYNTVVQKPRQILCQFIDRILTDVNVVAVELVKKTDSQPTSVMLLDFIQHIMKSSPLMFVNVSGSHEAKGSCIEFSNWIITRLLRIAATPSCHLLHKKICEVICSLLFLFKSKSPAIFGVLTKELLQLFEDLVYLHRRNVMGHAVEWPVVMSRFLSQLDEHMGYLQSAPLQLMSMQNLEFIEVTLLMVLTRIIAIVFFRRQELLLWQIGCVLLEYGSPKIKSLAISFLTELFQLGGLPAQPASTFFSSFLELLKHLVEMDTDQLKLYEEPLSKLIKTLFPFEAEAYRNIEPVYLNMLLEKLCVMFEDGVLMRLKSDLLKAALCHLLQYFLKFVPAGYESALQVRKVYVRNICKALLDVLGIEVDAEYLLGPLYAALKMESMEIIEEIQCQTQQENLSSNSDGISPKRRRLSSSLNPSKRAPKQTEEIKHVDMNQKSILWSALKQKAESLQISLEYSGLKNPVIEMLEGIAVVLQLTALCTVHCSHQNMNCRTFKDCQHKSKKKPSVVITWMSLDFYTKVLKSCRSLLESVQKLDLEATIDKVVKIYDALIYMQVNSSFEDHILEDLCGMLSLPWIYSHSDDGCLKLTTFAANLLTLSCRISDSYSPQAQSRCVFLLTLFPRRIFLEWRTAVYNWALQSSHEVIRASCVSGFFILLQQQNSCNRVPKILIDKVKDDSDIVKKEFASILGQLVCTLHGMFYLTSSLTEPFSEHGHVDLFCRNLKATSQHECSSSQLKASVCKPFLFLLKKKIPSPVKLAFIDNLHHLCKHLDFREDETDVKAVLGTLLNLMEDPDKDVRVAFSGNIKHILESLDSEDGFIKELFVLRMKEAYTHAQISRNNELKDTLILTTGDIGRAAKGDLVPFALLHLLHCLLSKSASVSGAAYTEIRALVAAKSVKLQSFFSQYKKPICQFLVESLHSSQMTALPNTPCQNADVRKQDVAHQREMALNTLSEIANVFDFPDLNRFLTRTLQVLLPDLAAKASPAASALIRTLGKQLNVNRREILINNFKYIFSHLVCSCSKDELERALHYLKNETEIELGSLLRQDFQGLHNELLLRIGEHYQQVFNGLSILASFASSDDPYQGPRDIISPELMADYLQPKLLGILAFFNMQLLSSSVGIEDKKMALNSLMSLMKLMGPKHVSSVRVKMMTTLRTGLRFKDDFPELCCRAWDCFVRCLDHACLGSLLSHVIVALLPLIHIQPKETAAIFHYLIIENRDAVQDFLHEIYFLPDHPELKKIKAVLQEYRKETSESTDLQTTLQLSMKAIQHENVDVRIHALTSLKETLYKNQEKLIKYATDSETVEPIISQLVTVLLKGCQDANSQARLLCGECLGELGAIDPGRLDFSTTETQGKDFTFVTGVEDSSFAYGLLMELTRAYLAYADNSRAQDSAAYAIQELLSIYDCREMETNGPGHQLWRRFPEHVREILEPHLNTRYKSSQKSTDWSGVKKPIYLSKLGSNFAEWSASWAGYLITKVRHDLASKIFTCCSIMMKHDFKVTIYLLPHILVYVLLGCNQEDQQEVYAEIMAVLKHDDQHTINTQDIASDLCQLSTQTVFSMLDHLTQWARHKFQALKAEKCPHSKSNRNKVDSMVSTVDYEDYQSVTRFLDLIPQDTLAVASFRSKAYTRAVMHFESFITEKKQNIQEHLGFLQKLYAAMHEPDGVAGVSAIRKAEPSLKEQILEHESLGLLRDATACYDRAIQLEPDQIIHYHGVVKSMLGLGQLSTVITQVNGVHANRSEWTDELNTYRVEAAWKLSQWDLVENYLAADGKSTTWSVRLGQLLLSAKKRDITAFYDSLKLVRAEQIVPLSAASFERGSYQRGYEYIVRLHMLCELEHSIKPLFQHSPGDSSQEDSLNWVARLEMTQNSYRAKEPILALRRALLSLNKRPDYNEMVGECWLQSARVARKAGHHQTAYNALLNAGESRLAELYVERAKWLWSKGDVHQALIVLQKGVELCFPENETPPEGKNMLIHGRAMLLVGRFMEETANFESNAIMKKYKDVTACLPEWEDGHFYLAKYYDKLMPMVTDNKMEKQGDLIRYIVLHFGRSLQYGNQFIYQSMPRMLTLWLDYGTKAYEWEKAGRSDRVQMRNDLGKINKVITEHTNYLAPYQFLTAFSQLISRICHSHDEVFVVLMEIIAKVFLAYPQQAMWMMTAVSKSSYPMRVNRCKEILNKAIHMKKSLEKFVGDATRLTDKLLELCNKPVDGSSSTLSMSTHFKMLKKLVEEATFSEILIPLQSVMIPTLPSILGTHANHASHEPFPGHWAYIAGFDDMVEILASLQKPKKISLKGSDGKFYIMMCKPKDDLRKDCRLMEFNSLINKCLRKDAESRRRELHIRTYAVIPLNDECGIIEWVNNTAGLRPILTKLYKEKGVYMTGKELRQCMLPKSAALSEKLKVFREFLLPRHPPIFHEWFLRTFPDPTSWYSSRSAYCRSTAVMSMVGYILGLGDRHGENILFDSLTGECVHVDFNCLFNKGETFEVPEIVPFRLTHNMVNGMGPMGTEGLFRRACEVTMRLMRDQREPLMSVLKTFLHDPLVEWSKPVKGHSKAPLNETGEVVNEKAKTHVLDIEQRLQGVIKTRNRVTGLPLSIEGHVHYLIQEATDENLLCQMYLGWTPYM
A word on the IC50: it is the concentration needed to halve the response being measured. The compound `CC(C)S(=O)(=O)c1ccc(-c2cnc(N)c(-c3cc(-c4ccc(CNC(N)=O)cc4)no3)n2)cc1` [US20250026742, Example 9] registered an IC50 of 1.83 nM.
`CN=S(C)(=O)c1ccc(-c2cnc(N)c(-c3cc(-c4ccc(CNC(=N)N)cc4)no3)n2)cc1` (stereo not drawn) [US20250026742, Example 12] returned an IC50 of 2.53 nM.
`CC(=N)Nc1ccc(-c2cc(-c3nc(-c4ccc(S(=O)(=O)C(C)C)cc4)cnc3N)on2)cc1` [US20250026742, Example 29] showed a half-maximal inhibitory concentration (IC50) of 3.12 nM. This IC50 and that of the compound before are within 1.5-fold of each other.
